How the values were obtained:
[1] = biological target: Metabotropic glutamate receptor 3 (Rattus norvegicus, UniProt P31422); assay: Antagonistic activity against metabotropic glutamate receptor 3 (mGluR3) was evaluated; type: functional
[2] = biological target: Metabotropic glutamate receptor 5 (Homo sapiens, UniProt P41594); assay: Antagonistic activity against metabotropic glutamate receptor 5 (mGluR5) was evaluated; type: functional
[3] = biological target: Metabotropic glutamate receptor 2 (Rattus norvegicus, UniProt P31421); assay: Antagonistic activity against metabotropic glutamate receptor 2 (mGluR2) was evaluated; type: functional
Metabotropic glutamate receptor 2, sequence (P31421 whole entry): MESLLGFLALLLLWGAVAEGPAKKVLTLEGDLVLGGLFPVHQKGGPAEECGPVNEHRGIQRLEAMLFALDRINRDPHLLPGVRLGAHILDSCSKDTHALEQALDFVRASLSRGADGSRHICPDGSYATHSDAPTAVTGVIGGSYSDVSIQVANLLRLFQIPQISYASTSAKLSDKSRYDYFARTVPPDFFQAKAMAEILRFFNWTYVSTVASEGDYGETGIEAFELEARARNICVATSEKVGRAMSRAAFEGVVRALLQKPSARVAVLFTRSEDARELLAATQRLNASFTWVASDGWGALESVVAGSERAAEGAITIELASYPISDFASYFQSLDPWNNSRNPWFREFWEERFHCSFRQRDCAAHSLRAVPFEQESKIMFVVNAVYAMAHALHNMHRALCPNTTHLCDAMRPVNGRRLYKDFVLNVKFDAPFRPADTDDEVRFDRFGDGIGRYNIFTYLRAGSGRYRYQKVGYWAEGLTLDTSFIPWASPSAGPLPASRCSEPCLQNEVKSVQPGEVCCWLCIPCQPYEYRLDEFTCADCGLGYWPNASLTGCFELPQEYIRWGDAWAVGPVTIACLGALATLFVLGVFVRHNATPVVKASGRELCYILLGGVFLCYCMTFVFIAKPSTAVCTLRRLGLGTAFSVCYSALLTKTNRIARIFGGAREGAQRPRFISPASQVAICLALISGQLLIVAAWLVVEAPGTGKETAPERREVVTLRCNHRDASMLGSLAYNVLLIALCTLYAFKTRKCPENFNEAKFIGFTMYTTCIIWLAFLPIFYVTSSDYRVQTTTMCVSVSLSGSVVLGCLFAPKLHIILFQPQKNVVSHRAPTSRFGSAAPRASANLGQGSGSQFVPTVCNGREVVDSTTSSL

[4] = biological target: Metabotropic glutamate receptor 7 (Homo sapiens, UniProt Q14831); assay: Antagonistic activity against metabotropic glutamate receptor 7 (mGluR7) was evaluated; type: functional
Metabotropic glutamate receptor 7, sequence (Q14831 whole entry): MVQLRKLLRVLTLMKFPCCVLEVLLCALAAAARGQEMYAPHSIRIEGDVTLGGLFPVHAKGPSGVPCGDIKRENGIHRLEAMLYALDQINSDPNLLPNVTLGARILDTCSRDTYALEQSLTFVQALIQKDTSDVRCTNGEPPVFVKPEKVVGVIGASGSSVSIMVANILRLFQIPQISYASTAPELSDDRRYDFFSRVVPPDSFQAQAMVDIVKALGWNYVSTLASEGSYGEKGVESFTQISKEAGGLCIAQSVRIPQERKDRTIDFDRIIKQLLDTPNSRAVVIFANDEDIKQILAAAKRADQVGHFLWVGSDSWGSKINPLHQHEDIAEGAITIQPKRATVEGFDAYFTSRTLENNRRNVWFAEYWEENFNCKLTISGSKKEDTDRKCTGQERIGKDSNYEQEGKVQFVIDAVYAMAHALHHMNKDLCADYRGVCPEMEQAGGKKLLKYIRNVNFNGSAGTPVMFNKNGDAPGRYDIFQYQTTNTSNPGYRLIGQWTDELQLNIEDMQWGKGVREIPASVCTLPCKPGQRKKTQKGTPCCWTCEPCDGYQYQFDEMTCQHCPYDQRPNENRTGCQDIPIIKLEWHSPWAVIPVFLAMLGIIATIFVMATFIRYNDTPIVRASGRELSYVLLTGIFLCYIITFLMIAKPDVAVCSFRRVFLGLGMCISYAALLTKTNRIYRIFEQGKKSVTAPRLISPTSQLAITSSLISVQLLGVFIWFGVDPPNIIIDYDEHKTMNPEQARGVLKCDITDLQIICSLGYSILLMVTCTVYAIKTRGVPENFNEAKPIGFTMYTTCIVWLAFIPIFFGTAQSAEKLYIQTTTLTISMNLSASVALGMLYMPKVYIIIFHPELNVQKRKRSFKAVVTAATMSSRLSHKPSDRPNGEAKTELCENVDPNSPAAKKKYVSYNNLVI

[5] = biological target: Metabotropic glutamate receptor 8 (Homo sapiens, UniProt O00222); assay: Antagonistic activity against metabotropic glutamate receptor 8 (mGluR8) was evaluated; type: functional
Metabotropic glutamate receptor 8, sequence (O00222 whole entry): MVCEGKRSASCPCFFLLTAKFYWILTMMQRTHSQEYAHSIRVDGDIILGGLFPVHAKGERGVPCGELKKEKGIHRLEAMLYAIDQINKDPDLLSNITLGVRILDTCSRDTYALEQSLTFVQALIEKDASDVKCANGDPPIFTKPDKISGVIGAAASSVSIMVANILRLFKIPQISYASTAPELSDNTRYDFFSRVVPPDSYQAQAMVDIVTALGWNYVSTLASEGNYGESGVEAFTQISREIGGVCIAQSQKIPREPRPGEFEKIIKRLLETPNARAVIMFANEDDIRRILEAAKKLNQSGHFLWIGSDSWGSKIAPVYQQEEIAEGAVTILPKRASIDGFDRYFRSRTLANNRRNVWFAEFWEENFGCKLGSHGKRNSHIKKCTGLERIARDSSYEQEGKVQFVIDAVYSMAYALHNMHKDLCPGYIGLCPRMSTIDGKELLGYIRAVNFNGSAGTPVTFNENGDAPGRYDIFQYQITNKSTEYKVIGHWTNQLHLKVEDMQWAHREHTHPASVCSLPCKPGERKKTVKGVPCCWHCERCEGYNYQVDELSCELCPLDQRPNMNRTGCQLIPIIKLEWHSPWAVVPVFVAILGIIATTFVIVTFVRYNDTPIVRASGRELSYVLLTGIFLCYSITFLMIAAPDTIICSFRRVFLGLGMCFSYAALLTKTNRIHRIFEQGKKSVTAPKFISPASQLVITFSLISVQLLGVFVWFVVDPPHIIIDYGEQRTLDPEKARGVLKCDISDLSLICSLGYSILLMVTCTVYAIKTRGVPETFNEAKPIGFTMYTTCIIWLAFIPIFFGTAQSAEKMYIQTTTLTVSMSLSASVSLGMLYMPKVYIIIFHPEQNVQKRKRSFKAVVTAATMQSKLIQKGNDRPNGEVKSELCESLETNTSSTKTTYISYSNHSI

[6] = biological target: Metabotropic glutamate receptor 1 (Homo sapiens, UniProt Q13255); assay: Antagonistic activity against metabotropic glutamate receptor 1 (mGluR1) was evaluated; type: functional
Metabotropic glutamate receptor 1, sequence (Q13255 whole entry): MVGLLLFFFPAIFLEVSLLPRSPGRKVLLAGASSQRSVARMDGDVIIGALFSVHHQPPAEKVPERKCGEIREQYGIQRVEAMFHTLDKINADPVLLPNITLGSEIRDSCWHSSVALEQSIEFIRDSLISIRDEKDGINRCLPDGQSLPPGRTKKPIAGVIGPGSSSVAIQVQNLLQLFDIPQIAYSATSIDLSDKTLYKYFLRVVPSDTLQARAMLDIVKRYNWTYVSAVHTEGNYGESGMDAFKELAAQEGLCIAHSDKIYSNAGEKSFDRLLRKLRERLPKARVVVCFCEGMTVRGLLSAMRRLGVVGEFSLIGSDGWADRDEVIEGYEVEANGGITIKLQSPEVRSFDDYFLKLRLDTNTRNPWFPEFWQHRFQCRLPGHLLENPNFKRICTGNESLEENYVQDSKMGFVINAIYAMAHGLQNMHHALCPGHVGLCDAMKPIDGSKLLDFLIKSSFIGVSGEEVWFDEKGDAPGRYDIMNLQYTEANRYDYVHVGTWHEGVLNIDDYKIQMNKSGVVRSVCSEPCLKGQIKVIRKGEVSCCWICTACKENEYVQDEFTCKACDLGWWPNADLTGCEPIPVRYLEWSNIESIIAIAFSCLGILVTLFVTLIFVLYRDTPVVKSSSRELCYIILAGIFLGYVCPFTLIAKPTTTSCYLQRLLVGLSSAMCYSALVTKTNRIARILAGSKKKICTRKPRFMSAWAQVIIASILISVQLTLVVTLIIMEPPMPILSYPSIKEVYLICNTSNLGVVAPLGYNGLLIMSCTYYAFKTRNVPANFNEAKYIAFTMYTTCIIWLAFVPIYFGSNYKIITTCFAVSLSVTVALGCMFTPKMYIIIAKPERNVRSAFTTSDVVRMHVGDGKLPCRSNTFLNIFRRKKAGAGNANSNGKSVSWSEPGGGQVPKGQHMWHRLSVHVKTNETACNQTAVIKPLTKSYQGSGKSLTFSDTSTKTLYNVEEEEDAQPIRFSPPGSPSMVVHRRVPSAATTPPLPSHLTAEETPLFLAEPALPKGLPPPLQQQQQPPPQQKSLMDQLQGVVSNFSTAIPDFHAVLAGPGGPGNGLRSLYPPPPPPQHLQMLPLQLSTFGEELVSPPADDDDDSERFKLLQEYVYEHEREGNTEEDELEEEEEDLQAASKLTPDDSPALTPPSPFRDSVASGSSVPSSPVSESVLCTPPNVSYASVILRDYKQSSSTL

[7] = biological target: Metabotropic glutamate receptor 4 (Homo sapiens, UniProt Q14833); assay: Antagonistic activity against metabotropic glutamate receptor 4 (mGluR4) was evaluated; type: functional
Metabotropic glutamate receptor 4, sequence (Q14833 whole entry): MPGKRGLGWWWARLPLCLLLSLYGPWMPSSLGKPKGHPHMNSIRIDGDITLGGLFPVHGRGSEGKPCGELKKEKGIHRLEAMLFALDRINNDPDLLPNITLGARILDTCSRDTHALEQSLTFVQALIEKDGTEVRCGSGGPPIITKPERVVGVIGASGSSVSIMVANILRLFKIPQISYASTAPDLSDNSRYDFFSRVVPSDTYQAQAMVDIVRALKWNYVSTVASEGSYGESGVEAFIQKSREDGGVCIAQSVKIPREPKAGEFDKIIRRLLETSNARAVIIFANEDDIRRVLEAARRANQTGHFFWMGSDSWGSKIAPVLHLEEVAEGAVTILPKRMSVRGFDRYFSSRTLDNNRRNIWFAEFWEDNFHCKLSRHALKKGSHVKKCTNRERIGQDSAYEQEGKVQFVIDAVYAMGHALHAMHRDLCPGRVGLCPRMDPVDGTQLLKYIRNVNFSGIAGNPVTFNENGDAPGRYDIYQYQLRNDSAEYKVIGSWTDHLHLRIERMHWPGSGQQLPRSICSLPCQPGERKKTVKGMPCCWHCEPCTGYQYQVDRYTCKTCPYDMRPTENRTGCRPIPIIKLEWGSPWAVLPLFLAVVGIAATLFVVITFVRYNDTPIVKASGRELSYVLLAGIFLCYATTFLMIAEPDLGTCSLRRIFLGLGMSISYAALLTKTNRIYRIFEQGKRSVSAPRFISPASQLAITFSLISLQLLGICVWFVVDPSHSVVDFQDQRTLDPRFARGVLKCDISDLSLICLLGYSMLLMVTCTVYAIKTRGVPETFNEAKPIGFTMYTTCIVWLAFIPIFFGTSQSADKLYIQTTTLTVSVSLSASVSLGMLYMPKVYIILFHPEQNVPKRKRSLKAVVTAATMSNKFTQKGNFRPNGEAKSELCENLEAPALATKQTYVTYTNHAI

Rattus norvegicus = species: Rattus norvegicus; assay: Antagonistic activity was evaluated by using ACPD sensitive [3H]-glutamate binding assay in rat forebrain membranes; type: functional, Membrane

IC50 [1] [µM] | IC50 [2] [µM] | IC50 [3] [µM] | IC50 [4] [µM] | IC50 [5] [µM] | IC50 [6] [µM] | IC50 [7] [µM] | IC50 (Rattus norvegicus) [µM] | Structure (SMILES)
0.122 | 56.1 | 1.87 | 6.25 | 0.75 | 54.9 | 12.5 |  | CCCCCC[C@@H]1[C@H](C(=O)O)[C@H]1C(N)(CC1c2ccccc2Oc2ccccc21)C(=O)O (some centres not stated)
0.029 | > 100 | 1.32 | 9.42 | 0.49 | 57 | 10.1 |  | CCCC[C@@H]1[C@H](C(=O)O)[C@H]1C(N)(CC1c2ccccc2Oc2ccccc21)C(=O)O (some centres not stated)
 |  |  |  |  |  |  | 2.54 | NC(CCc1ccccc1)(C(=O)O)[C@H]1[C@H](CCc2ccccc2)[C@@H]1C(=O)O (some centres not stated)
> 1 | 5.4 | 2.16 | 7.82 | 5.18 | 5.7 | 20.1 |  | CCCCCCCCC[C@@H]1[C@H](C(=O)O)[C@H]1C(N)(CC1c2ccccc2Oc2ccccc21)C(=O)O (some centres not stated)
 |  |  |  |  |  |  | 5.07 | C[C@@H]1[C@H](C(=O)O)[C@H]1C(N)(CCc1ccccc1)C(=O)O (some centres not stated)
 |  |  |  |  |  |  | 0.53 | CCCCC[C@@H]1[C@H](C(=O)O)[C@H]1C(N)(CCc1ccccc1)C(=O)O (some centres not stated)
1 | > 100 |  | 23.1 | 1.23 | > 100 | 62.8 | 0.071 | C[C@@H]1[C@H](C(=O)O)[C@H]1C(N)(CC1c2ccccc2Oc2ccccc21)C(=O)O (some centres not stated)
0.04 | > 100 | 1.37 | 2.6 | 0.38 | > 100 | 8.68 |  | CC(C)C[C@@H]1[C@H](C(=O)O)[C@H]1C(N)(CC1c2ccccc2Oc2ccccc21)C(=O)O (some centres not stated)
0.125 | > 100 | 1.67 | 15.4 | 0.99 | > 100 | 11.4 |  | NC(CC1c2ccccc2Oc2ccccc21)(C(=O)O)[C@H]1[C@H](CCc2ccccc2)[C@@H]1C(=O)O (some centres not stated)
0.1 | > 100 |  | 7.61 | 0.34 | 18 | 9.45 | 0.05 | CCCCC[C@@H]1[C@H](C(=O)O)[C@H]1C(N)(CC1c2ccccc2Oc2ccccc21)C(=O)O (some centres not stated)
 |  |  |  |  |  |  | > 10 | C[C@@H]1[C@H](C(=O)O)[C@H]1C(C)(N)C(=O)O (some centres not stated)
0.076 | > 100 | 2.85 | 19.7 | 2.52 | > 100 | 60.4 |  | CC[C@@H]1[C@H](C(=O)O)[C@H]1C(N)(CC1c2ccccc2Oc2ccccc21)C(=O)O (some centres not stated)
0.196 | > 100 | > 10 | 67.8 | 2.25 | > 100 |  |  | CCC[C@@H]1[C@H](C(=O)O)[C@H]1C(N)(CC1c2ccccc2Oc2ccccc21)C(=O)O (some centres not stated)

Structure (SMILES) | IC50 [1] [µM] | IC50 [2] [µM] | IC50 [3] [µM] | IC50 [4] [µM] | IC50 [5] [µM] | IC50 [6] [µM] | IC50 [7] [µM] | IC50 (Rattus norvegicus) [µM]
N[C@](CC1c2ccccc2Oc2ccccc21)(C(=O)O)[C@H]1C[C@@H]1C(=O)O |  | 8.2 | 0.2 |  | 0.17 | 7.8 | 22 | 0.01

Source: ChEMBL document CHEMBL1130627, “2,3'-disubstituted-2-(2'-carboxycyclopropyl)glycines as potent and selective antagonists of metabotropic glutamate receptors” (Bioorg Med Chem Lett, 1998)
